Measurements: ChEMBL document CHEMBL5518220, “The Discovery of 7-Isopropoxy-2-(1-methyl-2-oxabicyclo[2.1.1]hexan-4-yl)-N-(6-methylpyrazolo[1,5-a]pyrimidin-3-yl)imidazo[1,2-a]pyrimidine-6-carboxamide (BIO-7488), a Potent, Selective, and CNS-Penetrant IRAK4 Inhibitor for the Treatment of Ischemic Stroke” (J Med Chem, 2024)
Calls of active or inactive are those of the source. The rule behind the calls is not given here.

What was measured:
[1] = Metabolic stability in rat liver microsomes assessed as intrinsic clearance; format: ADME, Microsome; settings: read-out: CLH
[2] = Metabolic stability in rat hepatocytes assessed as intrinsic clearance; format: ADME, cell-based, Hepatocyte; settings: read-out: CLH
[3] = Unbound clearance in rat at 1 mg/kg, iv by LC-MS/MS analysis; format: ADME, organism-based; settings: in vivo
[4] = Metabolic stability in human hepatocytes assessed as intrinsic clearance; format: ADME, cell-based, Hepatocyte; settings: read-out: CLH
[5] = biological target: T1, Interleukin-1 receptor-associated kinase 4 (Homo sapiens, UniProt Q9NWZ3)
T1 sequence (Q9NWZ3 whole entry): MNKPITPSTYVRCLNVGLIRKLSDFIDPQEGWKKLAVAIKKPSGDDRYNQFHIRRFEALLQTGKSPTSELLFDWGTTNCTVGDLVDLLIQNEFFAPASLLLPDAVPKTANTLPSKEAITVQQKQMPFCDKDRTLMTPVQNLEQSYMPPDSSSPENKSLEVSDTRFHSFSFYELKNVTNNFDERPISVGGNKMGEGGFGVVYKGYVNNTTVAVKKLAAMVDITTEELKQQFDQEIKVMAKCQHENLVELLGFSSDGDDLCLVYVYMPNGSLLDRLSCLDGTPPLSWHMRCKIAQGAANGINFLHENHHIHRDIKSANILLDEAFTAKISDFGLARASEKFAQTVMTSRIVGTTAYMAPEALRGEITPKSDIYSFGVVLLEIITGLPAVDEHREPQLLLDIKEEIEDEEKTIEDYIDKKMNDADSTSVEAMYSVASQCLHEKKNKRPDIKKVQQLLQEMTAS

[6] = Unbound brain-to-plasma concentration ratio in iv dosed rat measured at 4 to 24 hrs by LC-MS/MS analysis; format: ADME, organism-based; settings: brain and plasma, time 4-24 hrs, read-out: K(p,uu,brain)
[7] = Metabolic stability in human liver microsomes assessed as intrinsic clearance; format: ADME, Microsome; settings: read-out: CLH
[8] = Clearance in rat at 1 mg/kg, iv by LC-MS/MS analysis; format: ADME, organism-based; settings: in vivo
MDR1 (P-gp) = assay: Efflux ratio of apparent permeability across basolateral to apical side over apical to basolateral side in MDCK-MDR1 cells at 1 uM incubated for 120 mins by LC-MS/MS analysis; format: ADME, cell-based, Canis lupus familiaris; settings: dog
[9] = biological target: T2, Voltage-gated inwardly rectifying potassium channel KCNH2 (Homo sapiens, UniProt Q12809); assay: Inhibition of hERG by patch clamp method; format: toxicity
Mus musculus [10] = assay: Inhibition of LPS-induced IL-6 production in po dosed female C57BL/6 mouse assessed as reduction in IL-6 level in plasma administered via oral gavage for 60 mins followed by LPS stimulation at 0.5 mg/kg, ip measured after 90 mins by ELISA; format: functional, organism-based
Mus musculus [11] = assay: Inhibition of LPS-induced IL-1beta production in po dosed female C57BL/6 mouse assessed as reduction in IL-1beta level in plasma administered via oral gavage for 60 mins followed by LPS stimulation at 0.5 mg/kg, ip measured after 90 mins by ELISA; format: functional, organism-based
Mus musculus [12] = assay: Inhibition of LPS-induced TNF-alpha production in po dosed female C57BL/6 mouse assessed as reduction in TNF-alpha level in brain administered via oral gavage for 60 mins followed by LPS stimulation at 0.6 ug, icv measured after 120 mins by ELISA; format: functional, organism-based; settings: dose 10-30 mg/kg, time 180.0 min
[13] = Lipophilicity, logD of compound in n-octanol and aqueous buffer at pH 7.4 by RP-HPLC method; format: physicochemical
Mus musculus [14] = assay: Inhibition of TNF-alpha production in male C57BL/6 mouse model of distal hypoxic-middle cerebral artery occlusion stroke assessed as reduction in TNF-alpha level in CNS at 10 to 30 mg/kg, po qd administered via oral gavage for 3 to 7 days starting from 1 hr 15 mins post cauterization by ELISA; format: functional, organism-based; settings: dose 10-30 mg/kg, time 3-7 day
Mus musculus [15] = assay: Inhibition of IL-1beta production in male C57BL/6 mouse model of distal hypoxic-middle cerebral artery occlusion stroke assessed as reduction in IL-1beta level in brain at 10 to 30 mg/kg, po qd administered via oral gavage for 3 to 7 days starting from 1 hr 15 mins post cauterization by ELISA; format: functional, organism-based; settings: dose 10-30 mg/kg, time 3-7 day
Mus musculus [16] = assay: Inhibition of LPS-induced IL-6 production in po dosed female C57BL/6 mouse assessed as reduction in IL-6 level in brain administered via oral gavage for 60 mins followed by LPS stimulation at 0.6 ug, icv measured after 120 mins by ELISA; format: functional, organism-based; settings: dose 10-30 mg/kg, time 180.0 min
Mus musculus [17] = assay: Inhibition of TNF-alpha production in male C57BL/6 mouse model of distal hypoxic-middle cerebral artery occlusion stroke assessed as reduction in TNF-alpha level in brain at 10 to 30 mg/kg, po qd administered via oral gavage for 3 days starting from 1 hr 15 mins post cauterization by ELISA; format: functional, organism-based; settings: dose 10-30 mg/kg, time 3.0 day
Mus musculus [18] = assay: Inhibition of IL-6 production in male C57BL/6 mouse model of distal hypoxic-middle cerebral artery occlusion stroke assessed as reduction in IL-6 level in brain at 10 to 30 mg/kg, po qd administered via oral gavage for 3 to 7 days starting from 1 hr 15 mins post cauterization by ELISA; format: functional, organism-based; settings: dose 10-30 mg/kg, time 3-7 day
[19] = Free drug level in male C57BL/6 mouse brain at 30 mg/kg, po qd measured on 3 to 7 days; format: ADME, organism-based; settings: in vivo, time 3-7 day
Mus musculus [20] = assay: Inhibition of LPS-induced IL-1beta production in po dosed female C57BL/6 mouse assessed as reduction in IL-1beta level in brain administered via oral gavage for 60 mins followed by LPS stimulation at 0.6 ug, icv measured after 120 mins by ELISA; format: functional, organism-based; settings: dose 10-30 mg/kg, time 180.0 min
Mus musculus [21] = assay: Inhibition of LPS-induced TNF-alpha production in po dosed female C57BL/6 mouse assessed as reduction in TNF-alpha level in plasma administered via oral gavage for 60 mins followed by LPS stimulation at 0.5 mg/kg, ip measured after 90 mins by ELISA; format: functional, organism-based
Mus musculus [22] = assay: Inhibition of IL-6 production in male C57BL/6 mouse model of distal hypoxic-middle cerebral artery occlusion stroke assessed as reduction in IL-6 level in CNS at 10 to 30 mg/kg, po qd administered via oral gavage for 3 days starting from 1 hr 15 mins post cauterization by ELISA; format: functional, organism-based; settings: dose 10-30 mg/kg, time 3.0 day
[23] = Inhibition of […] induced IL-1beta production in human whole blood preincubated for 1 hr followed by R848 stimulation and measured after 4 hrs by MSD assay; format: functional, tissue-based
[24] = biological target: T2, Voltage-gated inwardly rectifying potassium channel KCNH2; assay: Displacement of [35S]-MK499 from hERG by […]; format: toxicity

T2 sequence (Q12809 whole entry): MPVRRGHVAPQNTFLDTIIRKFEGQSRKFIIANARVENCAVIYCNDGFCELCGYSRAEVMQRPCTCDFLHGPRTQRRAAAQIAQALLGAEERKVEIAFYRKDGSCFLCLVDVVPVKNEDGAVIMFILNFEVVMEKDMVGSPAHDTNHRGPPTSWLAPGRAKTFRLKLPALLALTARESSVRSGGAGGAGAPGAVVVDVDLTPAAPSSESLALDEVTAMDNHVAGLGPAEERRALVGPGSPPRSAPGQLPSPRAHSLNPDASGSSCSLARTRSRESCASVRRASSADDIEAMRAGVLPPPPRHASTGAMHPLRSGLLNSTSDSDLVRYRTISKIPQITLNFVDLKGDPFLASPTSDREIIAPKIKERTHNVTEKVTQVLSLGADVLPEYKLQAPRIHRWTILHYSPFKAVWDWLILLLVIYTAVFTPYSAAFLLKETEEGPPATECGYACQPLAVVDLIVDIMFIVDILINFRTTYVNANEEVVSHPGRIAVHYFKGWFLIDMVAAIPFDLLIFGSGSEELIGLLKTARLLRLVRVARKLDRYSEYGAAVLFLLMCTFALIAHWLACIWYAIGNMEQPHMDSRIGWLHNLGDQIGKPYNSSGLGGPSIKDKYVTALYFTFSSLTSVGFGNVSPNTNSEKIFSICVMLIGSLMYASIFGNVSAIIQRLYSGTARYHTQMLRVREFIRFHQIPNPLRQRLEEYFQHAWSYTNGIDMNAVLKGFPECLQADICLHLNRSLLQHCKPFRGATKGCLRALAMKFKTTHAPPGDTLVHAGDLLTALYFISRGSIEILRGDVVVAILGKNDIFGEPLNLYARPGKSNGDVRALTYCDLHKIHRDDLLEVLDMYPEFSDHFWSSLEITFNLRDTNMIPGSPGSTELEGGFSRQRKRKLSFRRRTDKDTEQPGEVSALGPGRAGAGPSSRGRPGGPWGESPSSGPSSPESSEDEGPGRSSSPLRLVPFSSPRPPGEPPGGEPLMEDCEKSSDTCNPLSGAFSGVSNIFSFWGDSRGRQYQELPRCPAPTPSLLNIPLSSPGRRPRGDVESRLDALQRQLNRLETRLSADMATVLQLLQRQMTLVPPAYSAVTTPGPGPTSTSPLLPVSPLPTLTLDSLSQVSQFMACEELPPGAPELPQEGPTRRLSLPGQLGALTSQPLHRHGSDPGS

Structure (SMILES)	CLint scaled [1] [mL/min/kg]	CLint scaled [2] [mL/min/kg]	CL free [3] [mL/min/kg]	CLint scaled [4] [mL/min/kg]	IC50 [5] [nM]	Kp uu [6]	CLint scaled [7] [mL/min/kg]	clearance [8] [mL/min/kg]	efflux ratio at 2 h, 1 µM (MDR1 (P-gp))	other results
Cc1cc(NC(=O)c2cccc(C(F)F)n2)cn2cc(C3CCOCC3)nc12	26	12	227	16	130	0.7	11	20	–	–
CC(C)Oc1cc2nc(C3CCOCC3)cn2cc1C(=O)Nc1cccc(C(F)F)n1	81	29	–	28	0.25	–	21	–	–	–
CC(C)Oc1cc2nc(C34COC(C)(C3)C4)cn2cc1C(=O)Nc1cccc(C(F)F)n1	11	< 3	563	5.3	0.17	0.4	< 5	15	–	inhibition (Mus musculus [10]): Dose-Dependent Effect; inhibition (Mus musculus [11]): Dose-Dependent Effect; inhibition (Mus musculus [12]): Dose-Dependent Effect; logD [13]: 4.4; inhibition (Mus musculus [14]): inactive; inhibition (Mus musculus [15]): Active; inhibition (Mus musculus [16]): Dose-Dependent Effect; inhibition (Mus musculus [17]): inactive; inhibition (Mus musculus [18]): Active; Drug uptake(free) [19]: 100 nM; inhibition (Mus musculus [20]): Dose-Dependent Effect; inhibition (Mus musculus [21]): Dose-Dependent Effect; inhibition (Mus musculus [22]): inactive; IC50 ([23]; Homo sapiens, Blood): 306 nM; fIC50 ([23]; time 5 hrs): 6 nM; IC50 [9]: 2200 nM
CC(C)Oc1nc2nc(C34COC(C)(C3)C4)cn2cc1C(=O)Nc1cnn2ccncc12	–	–	–	–	16.3	–	–	–	–	–
COc1cc(NC(=O)c2cccc(C(F)(F)F)n2)cn2cc(C3CCOCC3)nc12	20	< 3	45	8	–	0.2	< 5	10	–	–
CC(C)Oc1nc2nc(C34COC(C)(C3)C4)cn2cc1C(=O)Nc1cnn2cccnc12	–	–	64	–	0.4	0.2	–	10	–	logD [13]: 2.1; IC50 [9]: 19700 nM
CC(C)Oc1cc2nc(C34COC(C)(C3)C4)cn2cc1C(=O)Nc1cnn2cccnc12	–	–	143	–	–	0.1	–	11	–	logD [13]: 2.1; IC50 [9]: > 30000 nM
CC(C)Oc1nc2nc(C34COC(C)(C3)C4)cn2cc1C(=O)Nc1cnn2cc(F)cnc12	–	–	67	–	–	0.2	–	7.2	–	logD [13]: 2.4; IC50 [9]: 18000 nM
Cc1cnc2c(NC(=O)c3cn4cc(C56COC(C)(C5)C6)nc4c(F)c3OC(C)C)cnn2c1	–	–	28	–	–	0.7	–	2.6	–	IC50 [24]: > 60000 nM; logD [13]: 2.5

The next lines start with results.

CLint scaled [1] [mL/min/kg]	CLint scaled [2] [mL/min/kg]	CL free [3] [mL/min/kg]	CLint scaled [4] [mL/min/kg]	IC50 [5] [nM]	Kp uu [6]	CLint scaled [7] [mL/min/kg]	clearance [8] [mL/min/kg]	efflux ratio at 2 h, 1 µM (MDR1 (P-gp))	Structure (SMILES)	other results
61	37	1788	75	0.2	0.4	30	22	–	CC(C)Oc1cc2nc(C3CCOCC3)cn2cc1NC(=O)c1cccc(C(F)F)n1	–
198	–	–	–	–	–	68	–	0.7	CCOc1cc2nc(C3(OC)CC3)cn2cc1NC(=O)c1cccc(C(F)F)n1	–
< 11	11	1388	19	0.2	0.4	5.4	37	1.4	CCOc1cc2nc(C34COC(C)(C3)C4)cn2cc1NC(=O)c1cccc(C(F)F)n1	IC50 [9]: 780 nM
< 10.7	–	–	–	–	–	< 4.7	–	5.5	CCOc1cc2nc(C(C)(C)O)cn2cc1NC(=O)c1cccc(C(F)F)n1	–
40	63	1738	45	0.6	0.3	27	57	2	CCOc1cc2nc(C3CCOCC3)cn2cc1NC(=O)c1cccc(C(F)F)n1	–
240	–	–	–	–	–	32	–	0.5	CCOc1cc2nc(CCOC)cn2cc1NC(=O)c1cccc(C(F)F)n1	–
145	–	–	–	–	–	20	–	0.4	CCOc1cc2nc(C3CC3)cn2cc1NC(=O)c1cccc(C(F)F)n1	–
266	–	–	–	1.4	–	55	–	1.1	CCOc1cc2nc(CCCOC)cn2cc1NC(=O)c1cccc(C(F)F)n1	–
20	36	149	18	150	1	< 5	16	–	Cc1cc2nc(C3CCOCC3)cn2cc1NC(=O)c1cccc(C(F)F)n1	–
